Data as given in PMC7845594, “Novel Immune Modulators Enhance Caenorhabditis elegans Resistance to Multiple Pathogens” (mSphere, 2021).
Where “and” joins values, the source holds several entries; their conditions need not be identical. Equal values may be shown once.

How the values were obtained:
[1] = tested on: glp-4(bn2) C. elegans exposed to P. aeruginosa PA14; experiment: P. aeruginosa liquid killing assay (effective rescue concentration); assay type: in vivo, Caenorhabditis elegans; conditions: glp-4(bn2) worms, ± 95% confidence interval
Procedure: For the first round of characterization, 69 novel small molecules previously selected on the basis of their ability to improve C. elegans survival during exposure to P. aeruginosa in liquid ([14]) were tested for the ability to interfere with bacterial growth. MICs were determined for each compound by growing P. aeruginosa strain PA14 in static culture in 384-well plates with serial 2-fold dilutions of compounds. No worms were used in these assays. Next, effective rescue concentrations (EC; defined as the minimum concentration that results in statistically significant survival, compared to dimethyl sulfoxide [DMSO]) ([15], [18]) were determined for each compound using the standard P. aeruginosa liquid killing assay. Sterile glp-4(bn2) worms were used in all liquid-based assays to limit artifacts (i.e., unlaid eggs will hatch and cause matricide).
FIG 1 LK molecules rescue C. elegans from P. aeruginosa in liquid killing. […] (B) Lipinski values for the five LK molecules, showing their molecular mass, predicted octanol-water partition coefficient, polar surface area, number of hydrogen donors and acceptors, and the number of rotatable bonds. (C) Minimum effective concentrations (EC) and 95% confidence interval, MICs (defined as the minimum concentration to prevent grown in LB media), and their ratio (MIC/EC). The minimum effective concentration was calculated from the lowest concentration that retained statistically significant rescue of glp-4(bn2) C. elegans, a temperature-sensitive sterile strain, from exposure to P. aeruginosa PA14. […] Compounds were added in serial 2-fold dilutions from 50 µM to 12.5 μM. *, P < 0.05; **, P < 0.01; ***, P < 0.001. P values were calculated using Student’s t test. At least six wells containing 20 worms each per condition per replicate were used for determination of liquid killing. EC values were calculated based on at least three biological replicates. Error bars represent the standard error of the mean.
Liquid killing of C. elegans was performed as previously described with some changes ([91]). In brief, an overnight culture of LB medium was inoculated with a single colony of Pseudomonas aeruginosa strain PA14. Then, 400 µl of culture was spread onto a 10-cm slow-kill agar plate ([91]) and grown for 24 h at 37°C, followed by 24 h at 25°C. Bacteria were scraped from the plate, resuspended in S Basal medium, and added to 384-well plates with small molecules dissolved in DMSO. Solution in wells contained a final concentration of 40% SK media, 59% S Basal medium, 1% DMSO, and small molecules. For all liquid-based killing assays, solvent control wells contained 1% DMSO. MgSO4 and CaCl2 (300 µM) and cholesterol (1.6 µg/ml) were added to aid in production of virulence factors. Worms were sorted into 384-well plates using a COPAS FlowSort (Union Biometrica, Holliston, MA), incubated at 25°C until the DMSO control was roughly 35 to 55% dead, washed four times using an EL406 microplate washer (BioTek, VT), and stained with 50 μl of Sytox Orange at 1 µM to fluorescently stain dead worms. Wells were imaged in bright-field and RFP channels using the BioTek Cytation5, followed by image analysis using the CellProfiler software package to calculate fraction of dead worms in each well. EC values were defined as the minimum concentration that provided statistically significant rescue. At least three biological replicates were performed.

[2] = tested on: C. elegans exposed to P. aeruginosa strain PA14; experiment: P. aeruginosa slow-killing assay (agar); assay type: in vivo, Caenorhabditis elegans; conditions: for Rescue in slow killing on disruption of the PMK-1 MAPK pathway: pmk-1 or atf-7 RNAi; for Survival in slow-killing assay vs DMSO: wild-type young adult worms
From the text: The finding that each of the compounds activated PMK-1/p38 MAPK targets was of interest, as this pathway is associated with enhanced immunity against multiple bacterial pathogens in agar-based C. elegans assays. Therefore, we tested whether these compounds could promote survival in an agar-based, high-colonization pathogenesis model known as slow killing. Loss of PMK-1 activity substantially compromises survival in the slow-killing assay ([16], [47]). Wild-type, young adult worms were exposed to P. aeruginosa strain PA14 on agar plates impregnated with each of the five compounds. […] To see whether this depended upon the PMK-1 pathway, LK32, LK38, and LK56 were retested in worms where RNAi was used to knock down pmk-1/MAPK or atf-7/ATF7 (a key transcription factor whose activity is modulated by PMK-1 [63, 64]) (Fig. 9; see Table S2 in the supplemental material for TD50 and overall statistical significance).
FIG 8 Four LK molecules extend C. elegans life span in the slow-killing assay. […] The data shown are from a representative replicate. Each of the three biological replicates was comprised of three plates per condition, with each plate containing ∼60 worms. Statistical significance was calculated using a log-rank test. Worms that left the surface of the plate were excluded from analysis (see Table S2 in the supplemental material for TD50 and exact P values).
FIG 9 Rescue in slow killing by a subset of LK compounds depends upon the PMK-1/p38 MAPK pathway. Wild-type L4 worms were reared on RNAi targeting pmk-1/p38 MAPK, atf-7/ATF-7, or empty vector and placed onto slow-killing plates containing DMSO or LK32 (A and B), LK38 (C and D), or LK56 (E and F) at 50 µM. Starting at 24 h, worms were scored every 12 h for survival until all worms perished. Each of the three biological replicates was comprised of three plates, each plate contained approximately 50 to 70 worms. Statistical significance was calculated using log-rank test (see Table S2 in the supplemental material for TD50 and exact P values). For vector RNAi, DMSO versus compound, P < 0.001 for LK38, LK56, and LK32.
Supplementary file : FIG S5 NSY-1 and SEK-1, upstream members of the PMK-1/p38 MAPK pathway, are required for LK38-mediated rescue. Young adult wild-type, nsy-1/MAP3K15(ag3), or sek-1/MAP2K6(km-4) mutants were exposed to P. aeruginosa in the slow-killing assay in the presence of DMSO or LK38. Data for each condition at each time point represent the average value for three plates from one representative replicate (of three replicates total). Each plate contained ∼60 worms. P values were calculated using a log-rank test (see Table S2 in the supplemental material for the TD50 and exact P values). For wild-type DMSO versus LK38 P < 0.001. No statistically significant difference was measured between LK38 and DMSO for either mutant. Download FIG S5, PDF file, 0.1 MB.
Slow-killing (SK) plates were made as previously reported ([92]). Compounds were added to molten SK agar before pouring plates. After solidifying, 40 µl of PA14 overnight culture was spread on plates before incubating plates at 37°C for 24 h, followed by 25°C for 24 h. 5-fluoro-2′-deoxyuridine (FUDR) (0.1 mg/ml) was dropped on plates 30 min prior to picking worms, to ensure nematode sterility. Fifty to seventy L4-stage, wild-type worms were picked onto plates and scored every 12 h after the first 24 h, until all worms were dead. Three biological replicates were performed.

[3] = vector RNAi, 50 µM, Fig 9 panels A-B, C, E
[4] = wild-type worms, 50 µM, Fig 8 (DMSO 58.9)
[5] = vector RNAi, 50 µM, Fig 9 panels D, F

SMILES | EC (minimum effective concentration giving statistically significant rescue) [1] | TD50, slow killing ([2]; atf-7 RNAi, 50 µM, Fig 9) | TD50, slow killing ([2]; pmk-1 RNAi, 50 µM, Fig 9) | Rescue in slow killing on disruption of the PMK-1 MAPK pathway ([2]; 50 µM) | TD50, slow killing [2, 3] | Survival in slow-killing assay vs DMSO ([2]; 50 µM) | TD50, slow killing [2, 4] | TD50, slow killing ([2]; N2 wild-type, Fig S5) | TD50, slow killing ([2]; nsy-1(ag3) mutant, Fig S5) | TD50, slow killing ([2]; sek-1(km4) mutant, Fig S5) | TD50, slow killing [2, 5]
COC(=O)/C=C/C(=O)Nc1ccccc1 [LK32] | 32 ± 0.0 µM and 32 µM | 46.2 h | 45.6 h | retained at least partial ability to rescue | 59.1 h | improved survival |  |  |  |  | 
CNC(=O)Oc1c(Br)cc2sc(=O)oc2c1Br [LK34] | 9.3 ± 4.4 µM and 9.3 µM |  |  |  |  | improved survival |  |  |  |  | 
CCN(CC)/N=N/c1ccc(C(=O)O)cc1 [LK35] | 17.3 ± 6.1 µM |  |  |  |  | not significant | 57.5 h |  |  |  | 
CN(C)/N=N/c1ccc(-c2cn(Cc3ccccc3)cn2)cc1 [LK38] | 6.7 ± 2.0 µM | 36.8 h | 35.6 h | completely dependent upon the PMK-1/MAPK pathways | 65.2 h | improved survival | 59.5 h | 59.5 h | 26.5 h | 27.6 h | 53.5 h
O=c1cc(CNc2ccc(Br)cc2)nc2sccn12 [LK56] | 7.3 ± 1.9 µM and 7.3 µM | 38.5 h | 38.0 h | retained at least partial ability to rescue | 59.9 h | improved survival | 60.5 h |  |  |  | 56.1 h
